{"source": "paper PMC12431657", "about": "“Discovery and mechanistic insights of dibenzoylmethane as a broad spectrum inhibitor of coronavirus” (PLOS Pathogens, 2025)", "system": "HCoV-OC43", "experiment": "In vivo efficacy of DBM against HCoV-OC43 in suckling mice (body weight, viral RNA copies, immunofluorescence, H&E)", "parameters": "species or system BALB/c suckling mice", "settings": "for Viral RNA copies (log scale), Brain / Viral RNA copies (log scale), Kidney / Viral RNA copies (log scale), Lung / Viral RNA copies (log scale), Spinal Cord: one value per mouse", "description": "Next, we characterized the therapeutic efficacy of the DBM in vivo. In this experiment, randomized 5–6-day-old suckling BALB/c mice were orally treated with DBM at concentrations of 500, 200, and 100 mpk 2 hours after being intranasally challenged with HCoV-OC43. Menstruum and VV116 were used as negative and positive controls, respectively. All the mice were sacrificed on Day 5 for organ and sample collection (Fig 4A). The body weight changes of the mice were continuously monitored during the trial. Infection with HCoV-OC43 led to body weight loss in the vehicle-treated mice on Day 5 (Fig 4B). […] The number of viral RNA copies from the brain, spinal cord, lungs, and kidneys were analysed via qRT-PCR, which targeted the HCoV-OC43 nucleocapsid gene sequence. On Day 5, the number of viral RNA copies in the vehicle-treated group reached approximately 10^12 copies in the brain, 10^9 copies in the spinal cord, 10^8 copies in the lungs, and 10^6 copies in the kidney (Fig 4C). In the mice treated with DBM at 500 mpk, the number of viral RNA copies within these organs and tissues was reduced by 1–3 logs compared with the vehicle-treated group. […] Sections of mouse brains, spinal cords, lungs, and kidneys were subjected to immunofluorescence staining with antibodies targeting HCoV-OC43 nucleocapsid proteins.\nFig 4 In vivo antiviral efficacy of DBM in 5-day-old BALB/c suckling mice infected with HCoV-OC43. A) Schematic of the experimental design for evaluating DBM in suckling mice. Each group consisted of 5-6 suckling mice. The schematic was created by the authors using Adobe Illustrator 2022. B) Body weight changes of mice during the experiment. Body weights were recorded daily and all mice were euthanised on the fifth day after infection. C) Viral RNA copies in the brains, spinal cords, lungs, and kidneys of mice collected on Day 5. After grinding and centrifuging the samples with DMEM, viral copies from the supernatants were tested by qRT-PCR. D) Viral titres in homogenised organs and tissues collected from mice on Day 5. E) Immunofluorescence staining of brain and lung sections from mice treated with different regimens. HCoV-OC43 nucleocapsid proteins were detected by immunofluorescence (green). Cell nuclei were stained with DAPI (blue). Data were statistically analyzed with Student’s T test. *: p ≤ 0.05, **: p ≤ 0.01, ***: p ≤ 0.001, ****: p ≤ 0.0001; ns, not significant. The experiments were repeated three times independently with similar results. […] No numeric values are printed in any panel, and nothing was read off the bars, points or curves.\nBALB/c mice were maintained and bred in a specific-pathogen-free (SPF) environment at the Laboratory Animal Center of Wuhan Institute of Virology, CAS. Pregnant mice with the same expected delivery date were acclimated in individually ventilated cages under standard conditions within an SPF environment. Food and water were available ad libitum. The mice were anaesthetized by isoflurane inhalation before any operation that may have caused potential discomfort. Before the experiment, suckling mice were randomly allocated into 6 distinct groups, namely, the healthy group, the vehicle group, the groups receiving DBM at 500 mg/kg (mpk) orally quaque die (QD), 200 mpk QD, and 100 mpk QD, and the group receiving VV116 at 25 mpk orally QD. Each group was comprised of 5–6 suckling mice. On the initiation day (Day 0) of the experiment, 5–6-day-old BALB/c suckling mice were intranasally infected with 1 × 10^4 TCID50 of HCoV-OC43. Two hours postinoculation, the mice were orally treated with either a placebo or varying doses of the drugs on the basis of their respective groupings as outlined earlier. This oral treatment regimen was continued for several days. The body weight changes of the mice were monitored daily. On Day 5, all the mice in each group were sacrificed for virological and histopathological analyses. […]", "note": "“And” between values parts separate entries of the source, which are not always exact repeats. Identical values can stand only once."}
{"compound": "O=C(CC(=O)c1ccccc1)c1ccccc1", "note": "[DBM, dibenzoylmethane]", "values": [{"measurement": "Viral RNA copies (log scale), Brain", "setting": "DBM 100 mpk oral QD, Day 5", "value": "10.75 and 11.25 and 9.46 and 11.43 and 10.91 and 11.34"}, {"measurement": "Viral RNA copies (log scale), Kidney", "setting": "DBM 100 mpk oral QD, Day 5", "value": "4.46 and 4.97 and 5.51 and 4.16 and 5.82 and 6.00"}, {"measurement": "Viral RNA copies (log scale), Lung", "setting": "DBM 100 mpk oral QD, Day 5", "value": "5.86 and 6.10 and 6.32 and 5.21 and 6.78 and 7.01"}, {"measurement": "Viral RNA copies (log scale), Spinal Cord", "setting": "DBM 100 mpk oral QD, Day 5", "value": "6.20 and 7.58 and 5.38 and 6.52 and 6.60 and 6.93"}, {"measurement": "Viral RNA copies (log scale), Brain", "setting": "DBM 200 mpk oral QD, Day 5", "value": "11.00 and 7.97 and 8.87 and 10.9 and 11.19"}, {"measurement": "Viral RNA copies (log scale), Kidney", "setting": "DBM 200 mpk oral QD, Day 5", "value": "3.29 and 5.31 and 4.03 and 3.52 and 4.72"}, {"measurement": "Viral RNA copies (log scale), Lung", "setting": "DBM 200 mpk oral QD, Day 5", "value": "5.84 and 6.05 and 5.32 and 4.74 and 6.24"}, {"measurement": "Viral RNA copies (log scale), Spinal Cord", "setting": "DBM 200 mpk oral QD, Day 5", "value": "7.21 and 4.77 and 4.18 and 5.72 and 5.07"}, {"measurement": "weight loss during the experiment", "setting": "DBM 500, 200, 100 mpk, VV116 25 mpk", "value": "did not experience weight loss"}, {"measurement": "Viral RNA copies (log scale), Brain", "setting": "DBM 500 mpk oral QD, Day 5", "value": "7.30 and 7.20 and 10.02 and 9.11"}, {"measurement": "Viral RNA copies (log scale), Kidney", "setting": "DBM 500 mpk oral QD, Day 5", "value": "5.15 and 4.76 and 4.30 and 4.17"}, {"measurement": "Viral RNA copies (log scale), Lung", "setting": "DBM 500 mpk oral QD, Day 5", "value": "6.62 and 5.77 and 7.8 and 5.49"}, {"measurement": "Viral RNA copies (log scale), Spinal Cord", "setting": "DBM 500 mpk oral QD, Day 5", "value": "7.86 and 7.12 and 7.13 and 6.92"}, {"measurement": "reduction of viral RNA copies in organs and tissues compared with the vehicle-treated group", "setting": "DBM 500 mpk, Day 5, brain, spinal cord, lungs, kidneys", "value": "1–3 logs"}, {"measurement": "Body weight (Fig4B)", "setting": "Diben-100mpk, day 0, individual mice, 100 mg/kg", "value": "106.0 and 99.6 and 102.4 and 92.2 and 88.6 and 111.2"}, {"measurement": "Body weight (Fig4B)", "setting": "Diben-100mpk, day 1, individual mice, 100 mg/kg", "value": "104.0 and 113.7 and 124.8 and 125.0 and 120.9 and 107.3"}, {"measurement": "Body weight (Fig4B)", "setting": "Diben-100mpk, day 2, individual mice, 100 mg/kg", "value": "129.4 and 142.0 and 134.3 and 116.8 and 125.0 and 145.3"}, {"measurement": "Body weight (Fig4B)", "setting": "Diben-100mpk, day 3, individual mice, 100 mg/kg", "value": "151.0 and 158.2 and 143.3 and 162.5 and 135.0 and 139.2"}, {"measurement": "Body weight (Fig4B)", "setting": "Diben-100mpk, day 4, individual mice, 100 mg/kg", "value": "155.1 and 164.8 and 182.5 and 163.5 and 153.3 and 179.2"}, {"measurement": "Body weight (Fig4B)", "setting": "Diben-100mpk, day 5, individual mice, 100 mg/kg", "value": "154.0 and 147.9 and 188.2 and 194.1"}, {"measurement": "Body weight (Fig4B)", "setting": "Diben-200mpk, day 0, individual mice, 200 mg/kg", "value": "111.2 and 88.7 and 105.9 and 107.7 and 103.2 and 83.4"}, {"measurement": "Body weight (Fig4B)", "setting": "Diben-200mpk, day 1, individual mice, 200 mg/kg", "value": "125.7 and 104.5 and 114.6 and 120.1 and 114.8 and 89.2"}, {"measurement": "Body weight (Fig4B)", "setting": "Diben-200mpk, day 2, individual mice, 200 mg/kg", "value": "114.8 and 130.4 and 137.3 and 125.5 and 125.0 and 98.5"}, {"measurement": "Body weight (Fig4B)", "setting": "Diben-200mpk, day 3, individual mice, 200 mg/kg", "value": "132.4 and 107.4 and 150.4 and 128.4 and 109.9 and 143.8"}, {"measurement": "Body weight (Fig4B)", "setting": "Diben-200mpk, day 4, individual mice, 200 mg/kg", "value": "124.4 and 149.1 and 155.3 and 166.7 and 150.7 and DIED"}, {"measurement": "Body weight (Fig4B)", "setting": "Diben-200mpk, day 5, individual mice, 200 mg/kg", "value": "132.2 and 156.0 and 162.7 and 162.5 and 153.8"}, {"measurement": "Body weight (Fig4B)", "setting": "Diben-500mpk, day 0, individual mice, 500 mg/kg", "value": "97.8 (2×) and 95.2 (2×) and 111.0 and 103.1"}, {"measurement": "Body weight (Fig4B)", "setting": "Diben-500mpk, day 1, individual mice, 500 mg/kg", "value": "118.9 and 116.3 and 111.0 and 105.7 (2×) and 124.2"}, {"measurement": "Body weight (Fig4B)", "setting": "Diben-500mpk, day 2, individual mice, 500 mg/kg", "value": "145.4 and 111.0 and 129.5 (2×) and 97.8 and 116.3"}, {"measurement": "Body weight (Fig4B)", "setting": "Diben-500mpk, day 3, individual mice, 500 mg/kg", "value": "118.9 and 169.2 and 132.2 and 108.4 and 102.6 and 148.0"}, {"measurement": "Body weight (Fig4B)", "setting": "Diben-500mpk, day 4, individual mice, 500 mg/kg", "value": "150.7 and DIED (2×) and 187.7 and 103.1 and 161.2"}, {"measurement": "Body weight (Fig4B)", "setting": "Diben-500mpk, day 5, individual mice, 500 mg/kg", "value": 100.4}, {"measurement": "viral loads by immunofluorescence staining of organ sections", "setting": "HCoV-OC43 nucleocapsid protein", "value": "reduced the viral loads"}, {"measurement": "damage caused by viral infection in brain and lung sections (H&E)", "setting": "oral DBM", "value": "significantly reduced the damage"}]}
